Reference: US8575094B2, “Use of type-B lantibiotic-based compounds having antimicrobial activity” (Novacta Biosystems Limited, priority 2007, dated 2013)
Values after ≈ are worked out from the molar mass of the structure shown. Like-named read-outs stand apart in the source and are kept apart here.

Experiments:
[1] = Stability in Simulated Gastric Fluid (SGF), HPLC; format: in vitro ADME; details: 37° C.
Description: (§1) The preferred method of dosage for the treatment of C. difficile infections is via the oral route of administration. […] Whilst the oral absorption of peptides and related substances of a molecular weight >1,000 Daltons is generally low, metabolism through peptidase enzymes is generally rapid and indeed forms an essential part of the normal digestion of food. The susceptibility of peptides towards enzymatic digestion in the stomach and intestine can reliably be estimated in vitro by measuring their stability in Simulated Gastric Fluid USP ([…], pepsin in saline, pH 1.2) and Simulated Intestinal Fluid USP (SIF, pancreatin in aqueous potassium dihydrogen phosphate, pH 6.8).
(§2) Nisin and mersacidin were tested for their susceptibility towards enzymatic digestion in the stomach and intestine. The SGF and SIF were based on the standard USP solutions for simulated gastric and simulated intestinal fluids and their activity confirmed against Bovine Serum Albumin (Hilger et al, 2001). The compounds were incubated in SGF or SIF at 37° C. and their concentrations quantified by analytical HPLC (UV detection at 210 nm). The potential degradation of each compound was also monitored qualitatively by measuring in vitro antibacterial activity against Micrococcus luteus.

[2] = Stability in Simulated Intestinal Fluid (SIF), HPLC; format: in vitro ADME; details: 37° C.
Description: as §1, §2

Micrococcus luteus = assay: In vitro antibacterial activity against Micrococcus luteus during SGF/SIF incubation; format: cell-based; details: incubation in SGF or SIF at 37° C.
Protocol: as §2

C. difficile spores = assay: Sporicidal activity: viable counts of C. difficile spores exposed to antibiotics; format: cell-based; details: for Viable counts of C. difficile spores: antibiotic at 100 µg/ml
Description: An agent capable of killing, or preventing the successful germination of C. difficile spores would therefore be of considerable interest. To determine the effects of type B lantibiotics on C. difficile spores, suspensions of spores were exposed to antibiotics ([…]) and aliquots were taken at appropriate time points. The spores in each aliquot were filtered off and plated out on to Brazier's agar.

Clostridium difficile = assay: microbe, parasite or virus in culture; format: cell-based; details: for MIC: Clostridioides difficile, read-out: Minimal Inhibitory Concentration (MIC)
Description: Compounds I to VII were screened against twelve clinical isolates of Clostridium difficile.
In addition, compounds L to LIII were screened against […] isolates of Clostridium difficile.

[3] = system: C. difficile strain VPI 10463; format: in vivo; details: hamster, three times daily at 50 mg/kg/day, 5-day dosing period
Protocol: The in vivo efficacy of two type B Lantibiotics in the treatment of C. difficile infections was evaluated in the standard animal model for CDAD: clindamycin-induced cecitis in hamster (FIG. 3). Four groups of six animals were dosed orally with approximately 10^7 cells of C. difficile strain VPI 10463 and 24 hours later with a subcutaneous dose of 10 mg/kg clindamycin phosphate.

[4] = system: Bifidobacterium adolescentis NCTC 11814
[5] = system: Bifidobacterium longum NCTC 11818
[6] = system: Bacteroides fragilis NCTC 9343
[7] = system: Bacteroides thetaiotaomicron NCTC 10582
C. difficile 630 = details: hamster, three times daily at 50 mg/kg/day for 5 days, groups of 6
Protocol: The in vivo efficacy of compound VII in the treatment of C. difficile infections was evaluated in the clindamycin-induced cecitis model in hamster (FIG. 4). Groups of 6 animals were given a subcutaneous dose of 10 mg/kg clindamycin phosphate. 24 hours later, the animals received oral inocula of ˜10^4 spores of C. difficile 630, prepared by heating overnight BHI culture fluids to 56° C. for 10 min and recovering spores by centrifugation and re-suspension of the pellet in an equal volume of PBS.

[8] = rat, 100 mg/kg oral
Protocol: Male Sprague-Dawley rats were dosed with compound VII at 100 mg/kg via the oral route. Faeces and urine were collected over a 48 h period in two batches (24 h and 48 h post dose). Blood samples were taken at various time points for the first 24 h.

## C=C1NC(=O)[C@@H]2NC(=O)[C@H](CC(C)C)NC(=O)[C@H](NC(=O)[C@@H]3CS[C@@H](C)[C@@H](NC(=O)[C@H](Cc4ccccc4)NC(=O)[C@@H]4NC(=O)[C@@H](N)CS[C@H]4C)C(=O)N[C@@H](CC(C)C)C(=O)N4CCC[C@H]4C(=O)NCC(=O)NCC(=O)NCC(=O)NCC(=O)N[C@@H](C(C)C)C(=O)N3)[C@H](C)SC[C@H](NC(=O)[C@H](CCC(=O)O)NC1=O)C(=O)N[C@@H]([C@@H](C)CC)C(=O)N/C=C\S[C@H]2C [Compound I, Mersacidin]
[1]
  Stability (degradation) in Simulated Gastric Fluid: None of the compounds showed appreciable degradation
[2]
  Stability (degradation) in Simulated Intestinal Fluid: essentially stable
Micrococcus luteus
  In vitro activity against M. luteus during the course of the experiment: remained unaltered
C. difficile spores
  Effect on C. difficile spore viability / germination: inactivate or prevent C. difficile spores from germinating
C. difficile spores; time 0 h
  Viable counts of C. difficile spores: 177
C. difficile spores; time 4 h
  Viable counts of C. difficile spores: 0
C. difficile spores; time 8 h
  Viable counts of C. difficile spores: 0
C. difficile spores; time 24 h
  Viable counts of C. difficile spores: 0

## C=C1NC(=O)[C@@H]2NC(=O)[C@H](CC(C)C)NC(=O)[C@H](NC(=O)[C@@H]3CS[C@@H](C)[C@@H](NC(=O)[C@H](Cc4c[nH]c5ccccc45)NC(=O)[C@@H]4NC(=O)[C@@H](N)CS[C@H]4C)C(=O)N[C@@H](CC(C)C)C(=O)N4CCC[C@H]4C(=O)NCC(=O)NCC(=O)NCC(=O)NCC(=O)N[C@@H](C(C)C)C(=O)N3)[C@H](C)SC[C@H](NC(=O)[C@H](CCC(=O)O)NC1=O)C(=O)N[C@@H](C(C)CC)C(=O)N/C=C\S[C@H]2C (stereo partly shown) [Compound IV, F3W Mersacidin]
Clostridium difficile
  Minimal Inhibitory Concentration (MIC): 2 µg/mL
[3]
  Survival of infected animals: survived for the duration of the entire 5-day dosing period
E. coli
  Minimal Inhibitory Concentration (MIC): >64 µg/mL
E. faecium
  Minimal Inhibitory Concentration (MIC): 32 µg/mL
[4]
  Minimal Inhibitory Concentration (MIC): 32 µg/mL
[5]
  Minimal Inhibitory Concentration (MIC): 16 µg/mL
[6]
  Minimal Inhibitory Concentration (MIC): 32 µg/mL
[7]
  Minimal Inhibitory Concentration (MIC): 16 µg/mL

## CC[C@H](C)[C@@H]1NC(=O)[C@H](C(C)C)NC(=O)[C@@H]2NC(=O)CNC(=O)[C@@H]3CS[C@@H](C)[C@@H](NC(=O)[C@@H]4CSC[C@@H](N)C(=O)N[C@@H](CO)C(=O)NCC(=O)N[C@@H](Cc5c[nH]c6ccccc56)C(=O)N[C@@H](C(C)C)C(=O)N4)C(=O)N[C@@H](CC(C)C)C(=O)N[C@@H](C(=O)N[C@@H]([C@@H](C)CC)C(=O)N[C@@H](CCC(=O)O)C(=O)N3)[C@H](C)SC[C@H](NC1=O)C(=O)N[C@@H](C)C(=O)N[C@H](C(=O)NCCO)C[S+]([O-])[C@H]2C (stereo partly shown) [Compound VI, Actagardine N-[2-ethanolamine] monocarboxamide]
[1]
  Stability (degradation) in Simulated Gastric Fluid: None of the compounds showed appreciable degradation
[2]
  Stability (degradation) in Simulated Intestinal Fluid: essentially stable
[3]
  Survival of infected animals: survived for the duration of the entire 5-day dosing period

## CC[C@H](C)[C@@H]1NC(=O)[C@@H]2NC(=O)[C@H](CC(C)C)NC(=O)[C@H](NC(=O)[C@@H]3CSC[C@@H](N)C(=O)N[C@@H](CO)C(=O)NCC(=O)N[C@@H](Cc4c[nH]c5ccccc45)C(=O)N[C@@H](C(C)C)C(=O)N3)[C@H](C)SC[C@H](NC(=O)[C@H](CCC(=O)O)NC1=O)C(=O)NCC(=O)N[C@H]1C(=O)N[C@@H](CC(C)C)C(=O)N[C@@H](C(C)C)C(=O)N[C@@H](CS[C@H]2C)C(=O)N[C@@H](C)C(=O)N[C@H](C(=O)NCCO)CS[C@H]1C [Compound VII, Deoxy-actagardine B N-[2-ethanolamine] monocarboxamide]
[1]
  Stability (degradation) in Simulated Gastric Fluid: None of the compounds showed appreciable degradation
C. difficile 630
  Survival of infected animals: all 6 of the infected mice survived
[8]
  Material recovered from plasma: No material was recovered
[8]; urine collected over 48 h
  Material recovered from urine: No material was recovered

## Cc1ncc([N+](=O)[O-])n1CCO [Metronidazole]
Clostridium difficile; C. difficile strain 027C
  MIC: 0.25 µg/mL (≈ 1.46 µM)
Clostridium difficile; C. difficile strain 27SM
  MIC: 0.125 µg/mL (≈ 0.73 µM)
Clostridium difficile; C. difficile strain 19126
  MIC: 0.25 µg/mL (≈ 1.46 µM)
Clostridium difficile; C. difficile strain 37779
  MIC: 0.125 µg/mL (≈ 0.73 µM)
Clostridium difficile; C. difficile strain B32
  MIC: 0.125 µg/mL (≈ 0.73 µM)
Clostridium difficile; C. difficile strain E4
  MIC: 0.25 µg/mL (≈ 1.46 µM)
Clostridium difficile; C. difficile strain E16
  MIC: 8 µg/mL (≈ 46.7 µM)
Clostridium difficile; C. difficile strain E101
  MIC: 0.125 µg/mL (≈ 0.73 µM)
Clostridium difficile; C. difficile strain P24
  MIC: 0.25 µg/mL (≈ 1.46 µM)
Clostridium difficile; C. difficile strain P49
  MIC: 0.125 µg/mL (≈ 0.73 µM)
Clostridium difficile; C. difficile strain P59
  MIC: 0.25 µg/mL (≈ 1.46 µM)
Clostridium difficile; C. difficile strain P62
  MIC: 0.25 µg/mL (≈ 1.46 µM)
C. difficile spores
  Effect on C. difficile spore viability / germination: no significant effect on spore viability
C. difficile spores; time 0 h
  Viable counts of C. difficile spores: 177
C. difficile spores; time 4 h
  Viable counts of C. difficile spores: 154
C. difficile spores; time 8 h
  Viable counts of C. difficile spores: 144
C. difficile spores; time 24 h
  Viable counts of C. difficile spores: 120
